Assay results as given in US20130072466A1, “COMPOSITION CONTAINING PLACENTA EXTRACTS” (Industry-Academic Cooperation Foundation, Yeungnam …, priority 2010, published 2013).

Legend:
reproductive cycle = assay: Reproductive cycle change assay by vaginal smearing; format: in vivo, CD-1 mice; details: subcutaneous injection for 14 days, FIG. 9
Procedure: (§1) The placenta 1 extract prepared according to the example was dissolved with 100% ethanol as a primary solvent, and sesame oil for body injection was added thereto to obtain a 1 g/ml concentration, and the resultant product was diluted into 0.1% concentration. Herein, 100% was defined as a case in which the extract was diluted with sesame oil by a factor of 100. The diluted extract was subcutaneously injected for 14 days to 6-8 week-old CD-1 mice which had been raised under physiological conditions (6 mice per each group).
To identify effects of the placenta extract on a reproductive cycle, a reproductive cycle was assayed by vaginal smearing during the administration of the placenta extract.

red blood cells = assay: Numerical change assay of red blood cells in peripheral blood; format: in vivo, CD-1 mice; details: 0.1% placenta extract, subcutaneous, 14 days; compared to the control; FIG. 11
Procedure: as §1
The cells were treated with 0.1% placenta extract under the same conditions as described above, and then, peripheral blood was collected, and then, 1 mg/ml of EDTA was added thereto to prevent blood coagulation. Then, the number of red blood cells was counted by using an analyzer.

[1] = tested on: CD34 hematopoietic stem cells; assay: CD34-marked numerical change assay of hematopoietic stem cells using FACS; format: in vivo, CD-1 mouse; details: 0.1% placenta extract, subcutaneous, 14 days, FIG. 10
Procedure: as §1
Whether the placenta extract promotes proliferation of hematopoietic stem cells was identified with CD34 that is a marking factor. CD-1 mouse treated with 0.1% placenta extract was sacrificed to collect a thighbone, and then, a bone marrow was extracted therefrom by using PBS solution. Thereafter, the bone marrow was reacted with CD34 specific antibody, and then, CD34 hematopoietic stem cells were counted by using a fluorescent activated cell sorter.

C[C@]12CC[C@H]3[C@@H](CCC4=CC(=O)CC[C@@H]43)[C@@H]1CC[C@@H]2O [nandrolone]
reproductive cycle periodicity (reproductive cycle): a reproductive cycle gradually became non-periodic | number of red blood cells in peripheral blood (red blood cells): the number of red blood cells significantly increased | number of CD34 hematopoietic stem cells in bone marrow [1]: the number of hematopoietic stem cells significantly increased
